The results in this text go back to patent US20230226062A1, “HETEROCYCLIC COMPOUNDS AS IMMUNOMODULATORS” (Incyte Corporation, priority 2016, published 2023).

The experiment addresses T1, PD-1/PD-L1 (Homo sapiens, UniProt Q9NZQ7).
T1 construct: Recombinant human PD-L1 protein (19-238) with a His-tag at the C-terminus; purchased AcroBiosystems PD1-H5229 (PD-L1); PD1-H5257 (PD-1)
In words: PD-1/PD-L1 Homogeneous Time-Resolved Fluorescence (HTRF) binding assay. The note with it: recombinant human PD-L1 (19-238)-His 10 nM, human PD-1 (25-167)-Fc 3 nM, 25° C., PBS pH 7.4. As for the experimental part:
Example A. PD-1/PD-L1 Homogeneous Time-Resolved Fluorescence (HTRF) Binding Assay
The assays were conducted in a standard black 384-well polystyrene plate with a final volume of 20 μL. Inhibitors were first serially diluted in DMSO and then added to the plate wells before the addition of other reaction components. The final concentration of DMSO in the assay was 1%. The assays were carried out at 25° C. in the PBS buffer (pH 7.4) with 0.05% Tween-20 and 0.1% BSA. Recombinant human PD-L1 protein (19-238) with a His-tag at the C-terminus was purchased from AcroBiosystems (PD1-H5229). Recombinant human PD-1 protein (25-167) with Fc tag at the C-terminus was also purchased from AcroBiosystems (PD1-H5257). PD-L1 and PD-1 proteins were diluted in the assay buffer and 10 μL was added to the plate well. Plates were centrifuged and proteins were preincubated with inhibitors for 40 minutes. The incubation was followed by the addition of 10 μL of HTRF detection buffer supplemented with Europium cryptate-labeled anti-human IgG (PerkinElmer-AD0212) specific for Fc and anti-His antibody conjugated to SureLight®-Allophycocyanin (APC, PerkinElmer-AD0059H). After centrifugation, the plate was incubated at 25° C. for 60 min. before reading on a PHERAstar FS plate reader (665 nm/620 nm ratio). Final concentrations in the assay were—3 nM PD1, 10 nM PD-L1, 1 nM europium anti-human IgG and 20 nM anti-His-Allophycocyanin. IC50 determination was performed by fitting the curve of percent control activity versus the log of the inhibitor concentration using the GraphPad Prism 5.0 software.

T1 sequence (Q9NZQ7 19-238): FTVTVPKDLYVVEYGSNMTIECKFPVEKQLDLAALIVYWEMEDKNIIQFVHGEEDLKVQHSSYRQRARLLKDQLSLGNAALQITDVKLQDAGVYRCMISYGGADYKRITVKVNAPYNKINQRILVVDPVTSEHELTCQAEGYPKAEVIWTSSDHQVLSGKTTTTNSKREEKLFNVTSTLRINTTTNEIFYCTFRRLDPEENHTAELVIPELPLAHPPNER

Regarding `Cc1c(Oc2ncnc3c(CNCCO)csc23)cccc1-c1ccccc1` [Example 1, 2-((4-(2-methylbiphenyl-3-yloxy)thieno[3,2-d]pyrimidin-7-yl)methylamino)ethanol], the IC50 was in the range of 10 to 100 nM.
The value for `Cc1c(-c2ccccc2)cccc1N1CC[C@H](CN)C1` [Example 29, (R)-(1-(2-methylbiphenyl-3-yl)pyrrolidin-3-yl)methanamine] was 1000 to 2000 nM.
The result for `Cc1c(-c2ccccc2)cccc1N1Cc2ccc(CNCCO)cc2C1` [Example 19, 2-((2-(2-methylbiphenyl-3-yl)isoindolin-5-yl)methylamino)ethanol] reads 100 to 1000 nM; that for `Cc1c(-c2ccccc2)cccc1-c1ccc2c(c1)CCC(CN(C)C)O2` (stereo not shown) [Example 16, N,N-dimethyl-1-(6-(2-methylbiphenyl-3-yl)chroman-2-yl)methanamine], 100 to 1000 nM.

By IC50 is commonly meant the concentration that gives 50% inhibition.
